Values after ≈ are worked out from the molar mass of the structure shown.
Tested on: L1210
Experiment: Cytotoxicity against mouse L1210 cells
Format: functional, cell-based
Details: not given

SMILES	IC50 [µM]
CC(C)=CCC[C@@H](C=O)[C@H]1CC[C@@]2(C)C3=C(CC[C@]12C)[C@@]1(C)CC[C@H](O)C(C)(C)[C@@H]1CC3	34.4
CC(C)=CCC[C@@H](C(=O)O)[C@H]1CC[C@@]2(C)C3=C(CC[C@]12C)[C@@]1(C)CC[C@H](O)C(C)(C)[C@@H]1CC3 [TRAMETENOLIC ACID]	62.5

Tested on: HeLa
Experiment: Cytotoxicity against human HeLa cells
Format: functional, cell-based
Details: Homo sapiens, HeLa

SMILES	IC50 [µM]
C/C(=C\CC[C@@H](C)[C@H]1CC[C@@]2(C)C3=C(CC[C@]12C)[C@@]1(C)CC[C@H](O)C(C)(C)[C@@H]1CC3=O)CO [LUCIDADIOL]	5
CC(=O)O[C@@H]1C(=O)C2=C(C(=O)C[C@H]3C(C)(C)[C@@H](O)CC[C@]23C)[C@]2(C)C(=O)C[C@H]([C@H](C)CC(=O)CC(C)C(=O)O)[C@@]12C (stereo not given in full) [GANODERIC ACID H]	> 300
C/C(=C\C(=O)CC(C)C(=O)O)[C@H]1C[C@H](O)[C@@]2(C)C3=C(C(=O)C[C@]12C)[C@@]1(C)CCC(=O)C(C)(C)[C@@H]1C[C@@H]3O (stereo not given in full) [GANODERENIC ACID A]	> 300
C[C@H](CC[C@H](O)[C@](C)(O)CO)[C@H]1CC[C@@]2(C)C3=CC[C@H]4C(C)(C)C(=O)CC[C@]4(C)C3=CC[C@]12C [GANODERMANONTRIOL]	11
C/C(=C\CC[C@@H](C)[C@H]1CC[C@@]2(C)C3=CC[C@H]4C(C)(C)[C@@H](O)CC[C@]4(C)C3=CC[C@]12C)C(=O)O [GANODERIC ACID Y]	11
CC(CC(=O)C[C@@H](C)[C@H]1C[C@H](O)[C@@]2(C)C3=C(C(=O)C[C@]12C)[C@@]1(C)CC[C@H](O)C(C)(C)[C@@H]1C[C@@H]3O)C(=O)O (stereo not given in full)	101
CC(=O)O[C@@H]1C(=O)C2=C([C@@H](O)C[C@H]3C(C)(C)[C@@H](O)CC[C@]23C)[C@]2(C)C(=O)C[C@H]([C@H](C)CC(=O)CC(C)C(=O)O)[C@@]12C (stereo not given in full) [GANODERIC ACID K]	> 300
CC(=O)O[C@@H]1C(=O)C2=C([C@@H](O)C[C@H]3C(C)(C)[C@@H](O)CC[C@]23C)[C@]2(C)C(=O)C[C@H](/C(C)=C\C(=O)CC(C)C(=O)O)[C@@]12C (stereo not given in full)	101
CCOC(=O)C(C)CC(=O)C[C@@H](C)[C@H]1CC(=O)[C@@]2(C)C3=C(C(=O)[C@@H](OC(C)=O)[C@]12C)[C@@]1(C)CCC(=O)C(C)(C)[C@@H]1CC3=O (stereo not given in full)	11
C[C@H](CC(=O)C[C@@H](C)[C@H]1C[C@H](O)[C@@]2(C)C3=C(C(=O)C[C@]12C)[C@@]1(C)CCC(=O)C(C)(C)[C@@H]1C[C@@H]3O)C(=O)O [GANODERIC ACID A]	> 300
CC(CC(=O)C[C@@H](C)[C@H]1CC(=O)[C@@]2(C)C3=C(C(=O)C[C@]12C)[C@@]1(C)CC[C@H](O)C(C)(C)[C@@H]1CC3=O)C(=O)O (stereo not given in full) [GANODERIC ACID AM1]	202
CC(CC(=O)C[C@@H](C)[C@H]1CC(=O)[C@@]2(C)C3=C(C(=O)[C@@H](O)[C@]12C)[C@@]1(C)CC[C@H](O)C(C)(C)[C@@H]1C[C@@H]3O)C(=O)O (stereo not given in full) [GANODERIC ACID G]	101
C/C(=C\CC[C@@H](C)[C@H]1C[C@H](O)[C@@]2(C)C3=C(C(=O)C[C@]12C)[C@@]1(C)CCC(=O)C(C)(C)[C@@H]1CC3)C(=O)O [GANOLUCIDIC ACID E]	11
C/C(=C\CC[C@@H](C)[C@H]1C[C@H](O)[C@@]2(C)C3=CC[C@H]4C(C)(C)C(=O)CC[C@]4(C)C3=CC[C@]12C)C(=O)O	11
CC(=O)OC1C[C@H]([C@H](C)CC/C=C(/C)C(=O)O)[C@@]2(C)CC=C3C(=CC[C@H]4C(C)(C)C(=O)CC[C@]34C)[C@]12C (stereo not given in full)	> 300
C/C(=C\C(=O)CC(C)C(=O)O)[C@H]1CC(=O)[C@@]2(C)C3=C(C(=O)C[C@]12C)[C@@]1(C)CCC(=O)C(C)(C)[C@@H]1CC3=O (stereo not given in full) [GANODERENICACID F]	202
C/C(=C\C(=O)CC(C)C(=O)O)[C@H]1CC(=O)[C@@]2(C)C3=C(C(=O)C[C@]12C)[C@@]1(C)CC[C@H](O)C(C)(C)[C@@H]1C[C@@H]3O (stereo not given in full) [GANODERENIC ACID B]	202
COC(=O)CC[C@@H](C)[C@H]1CC(=O)[C@@]2(C)C3=C(C(=O)[C@@H](O)[C@]12C)[C@@]1(C)CC[C@H](O)C(C)(C)[C@@H]1C[C@@H]3O [METHYL LUCIDENATE C]	101
COC(=O)[C@H](C)CC(=O)C[C@@H](C)[C@H]1CC(=O)[C@@]2(C)C3=C(C(=O)C[C@]12C)[C@@]1(C)CC[C@H](O)C(C)(C)[C@@H]1C[C@@H]3O [GANODERIC ACID B METHYL ESTER]	101
COC(=O)C(C)CC(=O)C[C@@H](C)[C@H]1CC(=O)[C@@]2(C)C3=C(C(=O)[C@@H](OC(C)=O)[C@]12C)[C@@]1(C)CC[C@H](O)C(C)(C)[C@@H]1CC3=O (stereo not given in full) [METHYL GANODERATE H]	11
C[C@H](CCC(=O)O)[C@H]1CC(=O)[C@@]2(C)C3=C(C(=O)C[C@]12C)[C@@]1(C)CCC(=O)C(C)(C)[C@@H]1C[C@@H]3O [LUCIDENIC ACID A]	> 300

Tested on: not listed separately
Experiment: Cytotoxicity against mouse Meth-A cells
Format: functional, cell-based
Details: read-out: ED50 (the source's name)

SMILES	EC50 [µg/mL]
C[C@H](CC[C@H](O)[C@](C)(O)CO)[C@H]1CC[C@@]2(C)C3=CC[C@H]4C(C)(C)C(=O)CC[C@]4(C)C3=CC[C@]12C [GANODERMANONTRIOL]	2.3 (≈ 4.87 µM)

Tested on: not listed separately
Experiment: Cytotoxicity against mouse LLC cells
Format: functional, cell-based
Details: Lewis lung carcinoma, read-out: ED50 (the source's name)

SMILES	EC50 [µg/mL]
C[C@H](CC[C@H](O)[C@](C)(O)CO)[C@H]1CC[C@@]2(C)C3=CC[C@H]4C(C)(C)C(=O)CC[C@]4(C)C3=CC[C@]12C [GANODERMANONTRIOL]	2.3 (≈ 4.87 µM)
